{"source": "patent US9828368B2", "about": "(MERCK SHARP & DOHME CORP., priority 2013, dated 2017)", "key": {"[1]": {"target": "human orexin-2 receptor (Homo sapiens (Human), UniProt O43614)", "sequence (O43614 whole entry)": "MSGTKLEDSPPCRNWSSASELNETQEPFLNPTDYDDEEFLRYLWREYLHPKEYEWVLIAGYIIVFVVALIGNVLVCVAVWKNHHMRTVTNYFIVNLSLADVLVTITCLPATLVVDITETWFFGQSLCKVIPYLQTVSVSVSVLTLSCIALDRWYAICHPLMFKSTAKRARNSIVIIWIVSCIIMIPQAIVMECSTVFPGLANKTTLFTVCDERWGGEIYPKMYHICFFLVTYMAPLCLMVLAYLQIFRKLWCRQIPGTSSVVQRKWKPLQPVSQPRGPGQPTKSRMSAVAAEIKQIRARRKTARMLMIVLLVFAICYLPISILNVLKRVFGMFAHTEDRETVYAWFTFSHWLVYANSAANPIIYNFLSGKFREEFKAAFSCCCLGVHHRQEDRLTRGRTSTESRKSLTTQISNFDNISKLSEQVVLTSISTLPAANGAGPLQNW", "assay": "FLIPR Ca2+ flux assay, hOX2R", "format": "cell-based", "details": "CHO cells expressing human orexin-2 receptor; agonist 70 pM Ala-6,12 orexin-A", "description": "In a typical experiment the OX1 and OX2 receptor antagonistic activity of the compounds of the present invention was determined in accordance with the following experimental method. For intracellular calcium measurements, Chinese hamster ovary (CHO) cells expressing the rat orexin-1 receptor or the human orexin-2 receptor, are grown in Iscove's modified DMEM containing 2 mM L-glutamine, […], 1% hypoxanthine-thymidine supplement, 100 U/ml penicillin, 100 μg/ml streptomycin and 10% heat-inactivated fetal calf serum (FCS). The cells are seeded at 20,000 cells/well into Becton-Dickinson black 384-well clear bottom sterile plates coated with poly-D-lysine. All reagents were from GIBCO-Invitrogen Corp. The seeded plates are incubated overnight at 37° C. and 5% CO2. Ala-6,12 human orexin-A as the agonist is prepared as a 1 mM stock solution in 1% bovine serum albumin (BSA) and diluted in assay buffer (HBSS containing 20 mM HEPES, 0.1% BSA and 2.5 mM probenecid, pH7.4) for use in the assay at a final concentration of 70 pM. Test compounds are prepared as 10 mM stock solution in DMSO, then diluted in 384-well plates, first in DMSO, then assay buffer. On the day of the assay, cells are washed 3 times with 100 μl assay buffer and then incubated for 60 min (37° C., 5% CO2) in 60 μl assay buffer containing 1 μM Fluo-4AM ester, 0.02% pluronic acid, and 1% BSA. The dye loading solution is then aspirated and cells are washed 3 times with 100 μl assay buffer. 30 μl of that same buffer is left in each well. Within the Fluorescent Imaging Plate Reader (FLIPR, Molecular Devices), test compounds are added to the plate in a volume of 25 μl, incubated for 5 min and finally 25 μl of agonist is added. Fluorescence is measured for each well at 1 second intervals for 5 minutes and the height of each fluorescence peak is compared to the height of the fluorescence peak induced by 70 pM Ala-6,12 orexin-A with buffer in place of antagonist. […] The intrinsic orexin receptor antagonist activity of a compound which may be used in the present invention may be determined by these assays."}, "[2]": {"target": "hOX1R (Homo sapiens, UniProt O43613)", "assay": "FLIPR Ca2+ flux assay, hOX1R", "format": "cell-based"}, "[3]": {"details": "CHO cells, agonist 70 pM Ala-6,12 orexin-A, rat orexin-1 receptor, read-out: hOX1R FLIPR IC50"}}, "note": "Like-named read-outs stand apart in the source and are kept apart here.", "data": [{"compound": "C[C@@H]1CC[C@@H](c2nc(CCF)c(-c3ccccc3)o2)CN1C(=O)c1ccccc1-n1nccn1", "note": "[Example 71, (2-(2H-1,2,3-triazol-2-yl)phenyl)((2R,5R)-5-(4-(2-fluoroethyl)-5-phenyloxazol-2-yl)-2-methylpiperidin-1-yl)methanone]", "values": [{"measurement": "IC50", "setting": "[1]", "value": 61, "unit": "nM"}, {"measurement": "IC50", "setting": "[2]; [3]", "value": 70, "unit": "nM"}]}, {"compound": "Cc1oc([C@@H]2CC[C@@H](C)N(C(=O)c3ccccc3-n3nccn3)C2)nc1[C@@H](O)C(F)(F)F", "note": "[Example 18, (2-(2H-1,2,3-Triazol-2-yl)phenyl)((2R,5R)-2-methyl-5-(5-methyl-4-((R)-2,2,2-trifluoro-1-hydroxyethyl)oxazol-2-yl)piperidin-1-yl)methanone]", "values": [{"measurement": "IC50", "setting": "[1]", "value": 13.9, "unit": "nM"}, {"measurement": "IC50", "setting": "[2]; [3]", "value": 420, "unit": "nM"}]}, {"compound": "CC[C@@](C)(O)c1nc([C@@H]2CC[C@@H](C)N(C(=O)c3cscc3-n3nccn3)C2)oc1C", "note": "[Example 47, (4-(2H-1,2,3-triazol-2-yl)thiophen-3-yl)((2R,5R)-5-(4-((R)-2-hydroxybutan-2-yl)-5-methyloxazol-2-yl)-2-methylpiperidin-1-yl)methanone]", "values": [{"measurement": "IC50", "setting": "[1]", "value": 18, "unit": "nM"}, {"measurement": "IC50", "setting": "[2]; [3]", "value": 9770, "unit": "nM"}]}, {"compound": "C[C@@H]1CC[C@@H](c2nc(C(C)(C)O)c(C(F)(F)F)o2)CN1C(=O)c1ccccc1-n1nccn1", "note": "[Example 54, (2-(2H-1,2,3-Triazol-2-yl)phenyl)((2R,5R)-5-(4-(2-hydroxypropan-2-yl)-5-(trifluoromethyl)oxazol-2-yl)-2-methylpiperidin-1-yl)methanone]", "values": [{"measurement": "IC50", "setting": "[1]", "value": 42, "unit": "nM"}, {"measurement": "IC50", "setting": "[2]; [3]", "value": 240, "unit": "nM"}]}, {"compound": "COC(=O)c1nc([C@@H]2CC[C@@H](C)N(C(=O)c3ccccc3-n3nccn3)C2)oc1-c1ccccc1", "note": "[Example 56, Methyl 2-((3R,6R)-1-(2-(2H-1,2,3-triazol-2-yl)benzoyl)-6-methylpiperidin-3-yl)-5-phenyloxazole-4-carboxylate]", "values": [{"measurement": "IC50", "setting": "[1]", "value": 1590, "unit": "nM"}, {"measurement": "IC50", "setting": "[2]; [3]", "value": 359, "unit": "nM"}]}, {"compound": "C[C@@H]1CC[C@@H](c2nc(Br)co2)CN1C(=O)c1ccccc1-n1nccn1", "note": "[Example 1, (2-(2H-1,2,3-Triazol-2-yl)phenyl)((2R,5R)-5-(4-bromooxazol-2-yl)-2-methylpiperidin-1-yl)methanone]", "values": [{"measurement": "IC50", "setting": "[1]", "value": 138, "unit": "nM"}, {"measurement": "IC50", "setting": "[2]", "value": "~7900", "unit": "nM"}]}, {"compound": "C[C@@H]1CC[C@@H](c2nc(-c3ccccc3)co2)CN1C(=O)c1ccccc1-n1nccn1", "note": "[Example 17, (2-(2H-1,2,3-Triazol-2-yl)phenyl)((2R,5R)-2-methyl-5-(4-phenyloxazol-2-yl)piperidin-1-yl)methanone]", "values": [{"measurement": "IC50", "setting": "[1]", "value": 38, "unit": "nM"}, {"measurement": "IC50", "setting": "[2]; [3]", "value": 120, "unit": "nM"}]}, {"compound": "Cc1oc([C@@H]2CC[C@@H](C)N(C(=O)c3ccccc3-c3ncccn3)C2)nc1C(C)(C)O", "note": "[Example 34, ((2R,5R)-5-(4-(2-Hydroxypropan-2-yl)-5-methyloxazol-2-yl)-2-methylpiperidin-1-yl)(2-(pyrimidin-2-yl)phenyl)methanone]", "values": [{"measurement": "IC50", "setting": "[1]", "value": 56, "unit": "nM"}, {"measurement": "IC50", "setting": "[2]; [3]", "value": 2200, "unit": "nM"}]}, {"compound": "Cc1oc([C@@H]2CC[C@@H](C)N(C(=O)c3cnsc3-n3nccn3)C2)nc1C(C)(C)O", "note": "[Example 42, (5-(2H-1,2,3-Triazol-2-yl)isothiazol-4-yl)((2R,5R)-5-(4-(2-hydroxypropan-2-yl)-5-methyloxazol-2-yl)-2-methylpiperidin-1-yl)methanone]", "values": [{"measurement": "IC50", "setting": "[1]", "value": 114, "unit": "nM"}, {"measurement": "IC50", "setting": "[2]; [3]", "value": "> 10000", "unit": "nM"}]}, {"compound": "C[C@@H]1CC[C@@H](c2nc(C(C)(C)O)c(C(F)F)o2)CN1C(=O)c1ccccc1-n1nccn1", "note": "[Example 53, (2-(2H-1,2,3-Triazol-2-yl)phenyl)((2R,5R)-5-(5-(difluoromethyl)-4-(2-hydroxypropan-2-yl)oxazol-2-yl)-2-methylpiperidin-1-yl)methanone]", "values": [{"measurement": "IC50", "setting": "[1]", "value": 43, "unit": "nM"}, {"measurement": "IC50", "setting": "[2]; [3]", "value": 316, "unit": "nM"}]}, {"compound": "C[C@@H]1CC[C@@H](c2nc(C(C)(C)O)c(C3CC3)o2)CN1C(=O)c1ccccc1-n1nccn1", "note": "[Example 14, (2-(2H-1,2,3-Triazol-2-yl)phenyl)((2R,5R)-5-(5-cyclopropyl-4-(2-hydroxypropan-2-yl)oxazol-2-yl)-2-methylpiperidin-1-yl)methanone]", "values": [{"measurement": "IC50", "setting": "[1]", "value": 19, "unit": "nM"}, {"measurement": "IC50", "setting": "[2]; [3]", "value": 21, "unit": "nM"}]}, {"compound": "COC(=O)C1CC1c1coc([C@@H]2CC[C@@H](C)N(C(=O)c3ccccc3-n3nccn3)C2)n1", "note": "(stereo partly drawn) [Example 2, Methyl 2-(2-((3R,6R)-1-(2-(2H-1,2,3-triazol-2-yl)benzoyl)-6-methylpiperidin-3-yl)oxazol-4-yl)cyclopropanecarboxylate]", "values": [{"measurement": "IC50", "setting": "[1]", "value": 49, "unit": "nM"}, {"measurement": "IC50", "setting": "[2]; [3]", "value": 3000, "unit": "nM"}]}, {"compound": "Cc1ccc(-n2nccn2)c(C(=O)N2C[C@H](c3ncc(C)o3)CC[C@H]2C)c1", "note": "[Example 72, (5-Methyl-2-(2H-1,2,3-triazol-2-yl)phenyl)((2R,5R)-2-methyl-5-(5-methyloxazol-2-yl)piperidin-1-yl)methanone]", "values": [{"measurement": "IC50", "setting": "[1]", "value": 433, "unit": "nM"}, {"measurement": "IC50", "setting": "[2]; [3]", "value": 4540, "unit": "nM"}]}, {"compound": "Cc1oc([C@@H]2CC[C@@H](C)N(C(=O)c3ccccc3-n3nccn3)C2)nc1[C@H](O)C(F)(F)F", "note": "[Example 19, (2-(2H-1,2,3-triazol-2-yl)phenyl)((2R,5R)-2-methyl-5-(5-methyl-4-((S)-2,2,2-trifluoro-1-hydroxyethyl)oxazol-2-yl)piperidin-1-yl)methanone]", "values": [{"measurement": "IC50", "setting": "[1]", "value": 24, "unit": "nM"}, {"measurement": "IC50", "setting": "[2]; [3]", "value": 790, "unit": "nM"}]}, {"compound": "C[C@@H]1CC[C@@H](c2nc(C(C)(C)O)c(-c3ccccc3)o2)CN1C(=O)c1ccccc1-n1nccn1", "note": "[Example 60, (2-(2H-1,2,3-Triazol-2-yl)phenyl)((2R,5R)-5-(4-(2-hydroxypropan-2-yl)-5-phenyloxazol-2-yl)-2-methylpiperidin-1-yl)methanone]", "values": [{"measurement": "IC50", "setting": "[1]", "value": 84, "unit": "nM"}, {"measurement": "IC50", "setting": "[2]; [3]", "value": 76, "unit": "nM"}]}]}
